Measurements reported in patent US8796201B2 (The Board of Trustees of the Leland Stanford Junior …, priority 2002, dated 2014).
Entries after “also recorded” stand apart in the source; their conditions may differ. Blank lines part the entries; values can stand above or below the molecule they belong to. Where no end group is shown, it is not given here.

Columns and labels:
[1] = system: α2-gliadin; assay: EPB2 activation and α2-gliadin digestion under acidic conditions; type: biochemical, wheat
Description: The gene for an endoprotease (EPB2; […] accession number U19384, nt 94-1963) from barley (Hordeum vulgare subsp. vulgare) was subcloned into a pET28b (Invitrogen) vector using BamH1 and EcoR1 insertion sites; the resulting plasmid was designated pMTB1. […] The proprotein was solubilized from the inclusion bodies using 7 M urea. The solubilized protein was purified on a Ni-NTA column. Auto-activation of proEPB2 to its mature, active form was achieved by addition of citrate-phosphate buffer, pH 3 (prepared by mixing 0.1 M sodium citrate and 0.2 M sodium phosphate). Under such acidic conditions, proEPB2 converts rapidly into a mature form with a molecular weight of 30 kDa (FIG. 2). By 72 hours, mature EPB2 undergoes autolysis. N-terminal sequencing yielded an N-terminal sequence beginning with VSDLP.
The pH optimum of proEPB2 activation and α2-gliadin digestion is 2.4-3.5, which can therefore provide a treatment for Celiac Sprue consisting of oral administration of proEPB2.

[2] = system: chymotrypsin; assay: gastric and pancreatic proteases, chymotrypsin playing a major role
[3] = system: FM PEP (recombinant prolyl endopeptidase from Flavobacterium meningosepticum); assay: 0.1 μM FM PEP in PBS buffer; details: 37° C.
[4] = system: MX PEP (recombinant prolyl endopeptidase from Myxococcus xanthus); assay: 0.1 μM MX PEP in PBS buffer; details: 37° C.
[5] = system: pepsin (1:100 w/w ratio), trypsin (1:100), chymotrypsin (1:100), elastase (1:500) and carboxypeptidase (1:100); assay: composite gastric/pancreatic enzymatic digestion
[6] = system: prolyl endopeptidase (PEP, specific activity 28 μU/pg) from Flavobacterium meningosepticum (US Biological, MA); assay: 27 ng/μl brush border membranes with exogenous prolyl endopeptidase from Flavobacterium meningosepticum; details: rat, up to one hour
[7] = system: SC PEP (recombinant prolyl endopeptidase from Sphingomonas capsulata); assay: 0.1 μM SC PEP in PBS buffer; details: 37° C., up to t=5 min
[8] = system: pepsin or any pancreatic enzyme; assay: pepsin or any pancreatic enzyme
[9] = In vivo perfusion of peptides through rat jejunum; details: 15-20 cm jejunum segment, residence time 20 min
Description: FIG. 5. In vivo brush border membrane digestion of peptides.
In Vivo Endopeptidase Activity. An adult (female or male) rat was anesthetized and maintained at 36-37° C. during the entire surgical procedure. The peritoneal cavity was opened, and a small incision was made at the beginning and the end of a 15-20 cm jejunum segment. Polyethylene catheters were inserted and secured into the two ends. The input catheter was connected with a pump-driven syringe filled with a solution. The jejunum segment was perfused initially with PBS buffer to remove any residual debris at a flow rate of 0.4 ml/min. Purified peptide solutions (peptide concentration ranges from 25-100 μM) were then perfused at 0.4 ml/min through the jejunum segment with a 10-40 min residence time. In the case of a co-perfusion, the input catheter is connected with two simultaneous syringes, one with a peptide solution and the other with the prolyl endopeptidase solution (concentration ranges from 50-500 μU/μl). Fluid from the output catheter was collected into small centrifuge tubes in dry ice for subsequent analysis. The collected digestive products were analyzed by HPLC on a C18 column.

[10] = system: rat brush border membrane (BBM) peptidases; type: in vitro ADME
Description: To investigate the digestion of gluten, liquid chromatography coupled mass spectroscopy analysis (LC-MS-MS) was utilized to investigate the pathways and associated kinetics of hydrolysis of immunodominant gliadin peptides treated with rat BBM preparations. Because the rodent is an excellent small animal model for human intestinal structure and function, rat BBM was chosen as a suitable model system for these studies.
BBM fractions were prepared from rat small intestinal mucosa as described in Ahnen et al. (1982) J. Biol. Chem. 257, 12129-35. […] No proline aminopeptidase (EC 3.4.11.5) or prolyl endopeptidase activity (PEP, EC 3.4.21.26) activity was detectable (<5 μU/μg). Alkaline phosphatase and sucrase were used as control BBM enzymes with activities of 66 μU/μg and 350 μU/μg, respectively.
BBM fractions were partially purified from the small intestinal mucosa of adult female rats maintained on an ad libitum diet of wheat-based standard rodent chow. Total protein content was determined by a modified method of Lowry with BSA as a standard. Alkaline phosphatase activity was determined with nitrophenyl phosphate. Sucrase activity was measured using a coupled glucose assay. […] PEP activity was determined continuously with 0.4 mM Z-Gly-Pro-pNA in PBS:H2O:dioxane (8:1.2:0.8) at 30° C. One unit is the consumption of 1 μmol substrate per minute.
Proteolysis with the BBM preparation was investigated using the peptide (SEQ ID NO:1) […], a product of chymotryptic digestion of α-9 gliadin (Arentz-Hansen et al. (2000) J. Exp. Med. 191, 603-12). […] It was subjected to BBM digestion, followed by LC-MS-MS analysis. A standard 50 μl digestion mixture contained 100 μM of synthetic peptide, 10 μM tryptophan and Cbz-tryptophan as internal standards, and resuspended BBM preparations with a final protein content of 27 ng/μl and exogenous proteins, as indicated, in phosphate buffered saline. After incubation at 37° C. for the indicated time, the enzymes were inactivated by heating to 95° C. for 3 minutes. The reaction mixtures were analyzed by LC-MS (SpectraSystem, ThermoFinnigan) using a C18 reversed phase column (Vydac 218TP5215, 2.1×150 mm) with water:acetonitrile:formic acid (0.1%):trifluoroacetic acid (0.025%) as the mobile phase (flow: 0.2 ml/min) and a gradient of 10% acetonitrile for 3 minutes, 10-20% for 3 minutes, 20-25% for 21 minutes followed by a 95% wash. Peptide fragments in the mass range of m/z=300-2000 were detected by electrospray ionization mass spectroscopy using a LCQ ion trap and their identities were confirmed by MSMS fragmentation patterns.
BBM fractions were prepared from rat small intestinal mucosa.

[11] = system: Lactobacillus helveticus PEP (Genbank ID#321529)
[12] = system: PQPQLPYPQPQLP; assay: Acceleration of brush border mediated digestion by exogenous endoproteases; type: biochemical, wheat; details: 27 ng/μl BBM, one hour
Description: FIG. 3. Dose dependent acceleration of brush border mediated digestion by exogenous endoproteases. […] This peptide was digested with 27 ng/μl brush border membranes, either alone, with increasing amounts of exogenous prolyl endopeptidase (PEP, specific activity 28 μU/pg) from Flavobacterium meningosepticum (US Biological, MA), or with additional elastase (E-1250, Sigma, Mo.), bromelain (B-5144, Sigma, Mo.) or papain (P-5306, Sigma, Mo.) (12). After one hour, the fraction of remaining (SEQ ID NO:4) […] (compared to the initial amount at t=0 min) was analyzed and quantified as in FIG. 1.
Alerted by the high proline content as a hallmark of most immunogenic gliadin peptides, a proline-specific endopeptidase was tested for the generation of new, free peptide termini. A literature search on available proteases led to the identification of prolyl endopeptidase (PEP) from Flavobacterium meningosepticum, which is specific for the C-terminal cleavage of prolines and readily available from recombinant sources (Yoshimoto et al. (1991) J. Biochem. 110, 873-8). The stable (SEQ ID NO:4) […] intermediate was digested with BBM in the presence of exogenous PEP. […] As little as 3.5 pg PEP/27 ng BBM protein was sufficient to double the extent of proteolysis of this gliadin fragment compared to incubation with BBM alone. In comparison, other commonly used proteases like papain, bromelain or porcine elastase were much less efficient, requiring 30-fold (papain) or 3000-fold (bromelain, elastase) higher amounts of enzyme compared to PEP to give similar results. Their proteolysis was restricted to the cleavage of the Gln^4-Leu^5 and/or Gln^11-Leu^12 bonds.
A similar preferential cleavage was found for (SEQ ID NO:1) QLQPFP^↓QPQLPY. This is in agreement with the preference of this prolyl endopeptidase for a second proline in the S2′ position (Bordusa and Jakubke (1998) Bioorg. Med. Chem. 6, 1775-80). Based on this P^↓XP motif and on the present data, up to 16 new, major cleavage sites can be predicted in the α2-gliadin sequence, a major source of immunodominant epitopes identified thus far upon PEP treatment. All of them are located in the critical N-terminal part. The internal cleavage by PEP can be expected to generate additional (otherwise inaccessible) substrates for DPP IV and DCP thereby complementing the natural assimilation process of gliadins by the BBM. Thus, the specificity of prolyl endopeptidase is ideally suited for detoxification of persistent immunoactive gliadin peptides in Celiac Sprue.

[13] = system: PQPQLPYPQPQLPY; assay: Hydrolysis of gliadin peptide by pancreatic proteases; type: biochemical, wheat; details: elastase at 100 ng/μl (non-physiological)
Description: Because BBM exopeptidases are restricted to N- or C-terminal processing, it was investigated if generation of additional free peptide ends by pancreatic enzymes would accelerate digestion.

[14] = kidney or brush border membranes

Molecule: EPB2: cysteine endoprotease from barley (Hordeum vulgare), accession U19384
- digestion of purified α2-gliadin ([1]; acidic conditions, mature form): efficiently digests purified α2-gliadin
- time by which mature form undergoes autolysis ([1]; citrate-phosphate buffer, pH 3): ≤ 72 h

Molecule: QLQPFPQPQLPY
- fraction proteolyzed in the perfusion experiment [9]: > 90%
- apparent half life of disappearance of parent peptide [10, 14]: 35 min

Molecule: chymotrypsin
- hydrolysis of PQPQLPYPQPQLPY [13]: No proteolysis was detected

Molecule: elastase: porcine elastase (E-1250, Sigma), pancreatic protease [reference compound]
- higher amount of enzyme compared to PEP to give similar results [12]: 3000 fold
- hydrolysis of PQPQLPYPQPQLPY [13]: capable of hydrolyzing

Molecule: proEPB2: inactive proprotein form of barley endoprotease EPB2
- pH optimum of proEPB2 activation and α2-gliadin digestion [1]: 2.4-3.5

Molecule: trypsin
- hydrolysis of PQPQLPYPQPQLPY [13]: No proteolysis was detected

Further lines, with some results ahead:

- fragment found [4]: YPQPQPF, first_seen, t=5 min
Molecule: LQLQPFPQPQLPYPQPQLPYPQPQLPYPQPQPF
- not cleaved [2]: remained intact despite prolonged exposure to proteases
- fragment found [3]: (SEQ ID NO:12, aa 1-19) LQLQPFPQPQLPYPQPQLP, first_seen, t=1 min; also recorded: (SEQ ID NO:12, aa 1-14) LQLQPFPQPQLPYP, first_seen, t=1 min; also recorded: (SEQ ID NO:12, aa 1-12) LQLQPFPQPQLP, first_seen, t=1 min; also recorded: QPQPF, first_seen, t=1 min
- not cleaved [5]: stable product of gastric and pancreatic digestion

- cleaved bond ([3]; up to t=5 min): P-Q, major, t=5 min
- cleaved bond ([4]; up to t=5 min): P-Y, major, t=5 min
Molecule: PQPQLPYPQPQLP
- cleaved bond [6]: Pro8-Gln9, major; also recorded: Pro6-Tyr7, minor
- cleaved bond [7]: P-Q, t=5 min; also recorded: P-Y, t=5 min
- not cleaved [8]: resistant to proteolysis by pepsin or any pancreatic enzyme

- cleaved bond [11]: P-I
Molecule: RPKHPIKHQ

- clearance of digestive intermediates [10]: cleared completely within one hour
- apparent half life of disappearance of parent peptide [10, 14]: 10 min
Molecule: RRLIEDNEYTARG

- half-life of disappearance [10, 14]: ~60 min
Molecule: WQIPEQSR

- cleaved bond [11]: P-V and P-I
Molecule: YQEPVLGPVRGPFPIIV

- higher amount of enzyme compared to PEP to give similar results [12]: 3000 fold
Molecule: bromelain [reference compound]

- higher amount of enzyme compared to PEP to give similar results [12]: 30 fold
B1: papain: papain (P-5306, Sigma) (protein, UniProt P00784 134-345, looked up)
Papain: IPEYVDWRQKGAVTPVKNQGSCGSCWAFSAVVTIEGIIKIRTGNLNEYSEQELLDCDRRSYGCNGGYPWSALQLVAQYGIHYRNTYPYEGVQRYCRSREKGPYAAKTDGVRQVQPYNEGALLYSIANQPVSVVLEAAGKDFQLYRGGIFVGPCGNKVDHAVAAVGYGPNYILIKNSWGTGWGENGYIRIKRGTGNSYGVCGLYTSSFYPVKN
